What was measured:
[1] = tested on: respiratory syncytial virus (RSV); assay: In vitro inhibition of viral infectivity, RSV (Example 46); assay type: cell-based; conditions: co-incubation of virus with HMO at 1 or 10 mg/mL
Experimental: In this Example, the effect of purified human milk oligosaccharides (HMO) on in vitro inhibition of viral infectivity is analyzed.
Samples are prepared by co-incubation of a uniform virus dose of from about 500 units/mL to about 1,000 units/mL of one of three respiratory viruses: (1) respiratory syncytial virus (RSV); (2) human parainfluenza virus (HPIV3); or (3) H1N1 influenza virus with one of the following HMOs: (1) 3′-sialyllactose (3′SL); (2) 6′-sialyllactose (6′SL); (3) 3′-fucosyllactose (3′FL); (4) 2′-fucosyllactose (2′FL); (5) lacto-N-neotetraose (LNnT); or (6) sialic acid (SA). The HMOs are added at concentrations of either 1 mg/mL or 10 mg/mL.

[2] = tested on: monocyte-derived cytokines; assay: Monocyte-derived cytokines in peripheral blood mononuclear cells with or without RSV (Example 49); assay type: cell-based, Human
Experimental: (§1) Specifically, either 3′SL or 6′SL is added, at concentrations of 0.1 mg/mL, 0.2 mg/mL, or 0.5 mg/mL to fresh peripheral blood mononuclear cells and incubated at 37° C. in 5% CO2 to pretreat the cells for approximately 24 hours. LNnT is added, at concentrations of 0.1 mg/mL, 0.2 mg/mL, or 1 mg/mL to fresh peripheral blood mononuclear cells and incubated at 37° C. in 5% CO2 to pretreat the cells for approximately 24 hours. Lactose is included as a carbohydrate control. Matched endotoxin unit concentration controls are included to allow differentiation of ingredient effects from inherent low levels of endotoxin. Some variables are then incubated with RSV at a multiplicity of infection (MOI) of 0.1 for approximately 1 hour at 37° C. in 5% in CO2. Uninfected control variables are incubated with medium for approximately 1 hour at 37° C. in 5% CO2. Supernatants are collected at 24 and 48 hours post-infection.
(§2) Cytokines are measured in supernatants for each variable at 24 and 48 hours to assess the effects of HMOs on the early immune response to RSV. Cytokines are measured using custom Bio-Plex Human cytokine kits from Bio-Rad. Results for interferon-inducible protein 10 (IP-10, also known as CXCL 10) are shown in FIGS. 3 and 4 for 3′SL and 6′SL, and in FIGS. 5 and 6 for LNnT. IP-10 is a CXC chemokine that attracts, binds to and activates the CXCR3 receptor on natural killer cells and memory T cells. IP-10 is expressed by monocytes and a number of other cells, and is induced by interferon. A positive correlation exists between RSV clinical disease severity in children (as measured by: length of hospital stay, fever, and number of days supplemental O2 is required) and serum IP-10. Therefore, a decrease in IP-10 signals a decrease in severity of RSV disease experienced.

[3] = tested on: H1N1 influenza virus; assay type: cell-based; conditions: for IC50 (mg HMO/mL) H1N1 Influenza: co-incubation of virus with HMO at 1 or 10 mg/mL
[4] = tested on: human parainfluenza virus (HPIV3); assay type: cell-based; conditions: co-incubation of virus with HMO at 1 or 10 mg/mL
[5] = tested on: interferon-inducible protein 10 (IP-10); assay: IP-10 in supernatants of RSV-infected peripheral blood mononuclear cells (Example 49); assay type: cell-based, Human; conditions: for IP-10 in virus-infected variables, both donors: RSV MOI 0.1, 0.1-0.5 mg/mL (LNnT 0.1-1 mg/mL); for reducing inflammation caused by RSV: pretreatment for 24 hours; for IP-10 level relative to uninfected controls: RSV-infected PBMC; for dampening virus-induced inflammation as measured by a decrease in IP-10, comparison: compared with 3′SL
Experimental: as §1, §2

[6] = tested on: interleukin 10 (IL-10); assay: IL-10 in supernatants of peripheral blood mononuclear cells with or without RSV (Example 49); assay type: cell-based, Human; conditions: in the presence or absence of RSV
Experimental: as §1
Cytokines are measured in supernatants for each variable at 24 and 48 hours to assess the effects of HMOs on the early immune response to RSV. Cytokines are measured using custom Bio-Plex Human cytokine kits from Bio-Rad. […] A positive correlation exists between RSV clinical disease severity in children (as measured by: length of hospital stay, fever, and number of days supplemental O2 is required) and serum IP-10. […]

[7] = tested on: rotavirus; assay: NSP4 mRNA expression in rotavirus-treated ileal loops of piglets (Example 50); assay type: in vivo; conditions: HMO about 2 mg/mL plus rotavirus, 6 hours, vs RV and media
Experimental: Specifically, HMO and nucleotide treatment within the ileal lumen of both healthy and acutely rotavirus-infected piglets is analyzed.
Two groups of piglets (both n=9) are fed from age 48 hours to age 21 days either a low nucleotide formula comprising about 72 mg/L of a nucleotide mixture or a high nucleotide formula comprising about 320 mg/L of a nucleotide mixture.
At day 21, a midline laparotomy is performed and six loops of ilium are isolated in situ. Each loop is about 10 cm long and is followed by an inter-loop segment of about 2 cm. […]
The following treatments are injected into the loops: media; LNnT; an acidic HMO mixture comprising about 40 wt % 6′SL, about 10 wt % 3′SL, and about 50 wt % sialic acid; media and rotavirus; LNnT and rotavirus; and the acidic HMO mixture comprising about 40 wt % 6′SL, about 10 wt % 3′SL, and about 50 wt % sialic acid and rotavirus. […] Each loop is treated for 6 hours, and post-treatment reverse transcriptase products from ilium mucosal cells are analyzed by quantitative real-time PCR in TaqMan gene expression assays of the target genes NSP4, IL-8, and TNF-α. […] The expression levels of genes of interest are standardized to RPL19 mRNA and expressed as fold differences which correspond to a ratio to the mean value for the control group.

[8] = tested on: H1N1 influenza virus; assay type: cell-based; conditions: HMO at 10 mg/mL, MDCK cells, FIG. 1
[9] = in the presence or absence of the virus

| Structure (SMILES) | IC50 (mg HMO/mL) RSV [1] [mg HMO/mL] | immunomodulation, production of monocyte-derived cytokines [2, 9] | anti-viral activity, H1N1 influenza virus ([3]; HMO at 1 mg/mL) | IC50 (mg HMO/mL) H1N1 Influenza [3] [mg HMO/mL] | IC50 (mg HMO/mL) HPIV3 [4] [mg HMO/mL] | IP-10 in virus-infected variables, both donors ([5]; 24 hours pretreatment) | RSV-induced IP-10, Donor B ([5]; Donor B, 24 hours pretreatment, RSV MOI 0.1) | RSV-induced IP-10, Donor E ([5]; Donor E, 24 hours pretreatment, RSV MOI 0.1) | reducing inflammation caused by RSV [5] | IL-10 concentration [6] | NSP4 expression ([7]; high nucleotide formula fed group (about 320 mg/L)) | NSP4 expression ([7]; low nucleotide formula fed group (about 72 mg/L)) | IP-10 level relative to uninfected controls [5] | dampening virus-induced inflammation as measured by a decrease in IP-10, comparison [5] | immunomodulation, production of monocyte-derived cytokines ([2]; in the absence of the virus) | inhibition of virus infectivity [8] |
| --- | --- | --- | --- | --- | --- | --- | --- | --- | --- | --- | --- | --- | --- | --- | --- | --- |
| CC(=O)N[C@H]1[C@H]([C@H](O)[C@H](O)CO)O[C@@](O[C@H]2[C@@H](O)[C@@H](CO)O[C@@H](O[C@H]3[C@H](O)[C@@H](O)C(O)O[C@@H]3CO)[C@@H]2O)(C(=O)O)C[C@@H]1O (some centres unmarked) [3′SL, 3′-sialyllactose] | >10 | immunomodulatory | inhibited | ~5 | >10 | dampen RSV-induced IP-10 | not effective | downregulates RSV-induced IP-10 | effective in reducing inflammation caused by RSV |  |  |  |  |  |  |  |
| CC(=O)N[C@H]1[C@H](O[C@H]2[C@@H](O)[C@@H](CO)O[C@@H](O[C@H]3[C@H](O)[C@@H](O)C(O)O[C@@H]3CO)[C@@H]2O)O[C@H](CO)[C@@H](O[C@@H]2O[C@H](CO)[C@H](O)[C@H](O)[C@H]2O)[C@@H]1O (mixture of isomers) [LNnT, lacto-N-neotetraose] | >10 | immunomodulatory |  | >10 |  | clearly downregulates IP-10 |  |  | effective in reducing inflammation caused by RSV | increases IL-10 concentration in a dose-dependent manner | reduced NSP4 expression | reduced NSP4 expression | reduce IP-10 to levels found in uninfected controls | more effective than 3′SL |  |  |
| CC(=O)N[C@H]1[C@H]([C@H](O)[C@H](O)CO)O[C@@](OC[C@H]2O[C@@H](O[C@H]3[C@H](O)[C@@H](O)[C@H](O)O[C@@H]3CO)[C@H](O)[C@@H](O)[C@H]2O)(C(=O)O)C[C@@H]1O [6′SL, 6′-sialyllactose] | >10 |  |  | ~10 | >10 | clearly downregulates IP-10 |  |  | effective in reducing inflammation caused by RSV | increases interleukin 10 (IL-10) concentration in a dose-dependent manner |  |  | reduce IP-10 to levels found in uninfected controls | more effective than 3′SL | immunomodulatory | approximately 60% |

Reference: patent US11701376B2, “Nutritional compositions comprising human milk oligosaccharides and nucleotides and uses thereof for treating and/or preventing enteric viral infection” (priority 2010, dated 2023)
